“Also recorded” adds a separate entry of the source.

For series [1], the system named is knocked down LHRH receptors of breast cancer cells. Nature of the series: alamar blue reduction after siRNA knockdown of LHRH receptors. Type of series: cell-based, human. As to conditions: cells treated with siRNAs; 5 μM; 24, 48 and 72 hours.
For series [2], the system named is MDA-MB-231 human triple negative breast cancer cells xenograft. In words: subcutaneous xenograft tumor shrinkage study. Type of series: in vivo, Athymic Nude-Foxn1nu strain mice. To be noted: for tumor volume, 21-day group: after about two weeks, mean volume before treatment 98 mm^3; for xenograft tumor size, 28-day group: two weeks of drug administration, mean volume before treatment 230 mm^3; for tumor outcome, early stage (day 14 group): 10 mg/kg. As to the method:
In this section, cell culture, tumor induction and drug injection studies were carried out. First, 20 μl of 1×10^6 MDA-MB-231 human triple negative cancer cells were cultured in T75 tissue culture flasks (CELLTREAT, Pepperell, Mass., USA). This was carried out at 37° C. until 70% confluence was reached. The cells were grown under normal atmospheric pressure levels in a “L15′ medium” that is typically made up of: L-15 medium (ATCC, Manassas, Va., USA), supplemented with 100 I.U./ml penicillin/100 µg/ml streptomycin and 10% FBS (ATCC, Manassas, Va., USA).
Forty 4-weekold Athymic Nude-FoxnInu strain mice with individual weights of ˜17 g each was purchase from Envigo (Somerset, N.J., USA). These animals were approved for use in the current work by the University of Massachusetts Medical School Institutional Animal Care and Use Committee (UMMS IACUC) with docket #A2630-17. All of the animals were maintained and used according to the approved UMMS IACUC procedure and guideline.
Subcutaneous tumor xenografts were induced by the injection of 5.0×10^6 of MDA-MB-231 human triple negative breast cancer cells (suspended in sterile saline) into the interscapular region (for a better angiogenic response). Tumor formation was carefully assessed by palpation. Tumor growth was then monitored daily with the digital calipers. The tumor volume was calculated using the following modified ellipsoidal formula: […]
where length was the longest axis of the tumor and width is the measurement at a right angle to the length.
The mice were randomly chosen in groups of three (for each drugs injection) into their respective treatment groups. These include groups of mice with early stage (14 days after tumor induction), mid stage (21 days after tumor induction) and late stage (28 days after tumor induction) tumors. The weights of the mice and their tumor sizes were monitored and measured (using digital calipers) on a daily basis. These precise volumes and measured weights of the mice were used to guide the administration of the drugs. They were also used to monitor toxicity and side effects associated with the drugs. For each of the study groups, 3 mice each were randomly assigned to injection of 10 mg/kg of the specific drug configuration (PTX, [D-Lys6]LHRH-conjugated PTX and DMSO).
Different groups of mice were injected intravenously with each drug through their tail veins. This was done after tumor growth for 14, 21 and 28 days. The mice were injected with 10 mg/kg per week, during the two-week periods in which the effects of drugs were investigated. Following each drug administration, the tumor sizes were monitored with calipers on a daily basis (every 24 hours). In this way, the possible tumor shrinkage, growth or elimination, were monitored on a daily basis. Furthermore, the health status of the mice was monitored on a daily basis. This was done by monitoring the mice for signs of weight loss or altered motor ability in their cages. At the end of study, the mice were euthanized, following the approved IACUC guidelines and procedures. Thereafter, tumor tissues were excised from all of the mice, including tissues from their major organs (kidneys, spleen, liver and lungs).

The nature of series [3]: histopathological and toxicity studies. As to conditions: 10 mg/kg weekly for two weeks; for qualitative toxicity (mortality, body weight, clinical signs): tumor-bearing mice.
Protocol: Double doses of 10 mg/kg of PTX and PTX-[D-Lys6]LHRH were then administered (on a weekly basis for two weeks) to female athymic nude mice that were subcutaneously-induced with TNBC. In this way, qualitative toxicity was studied by considering differences in mortality, changes in body weight, clinical signs, gross observations and the histopathology of the lungs, kidneys and the liver at different stages of tumor development. This was done for the different drugs and cancer treatment durations. Daily observations and weight measurements were also used to check for possible animal reactions to the drugs, physiological changes, weight loss/gain, and the general well-being of the mice.
Hematoxylin and eosin (H and E) staining was also carried out. This was used for the identification of tumor necrosis and the examination of histologic changes that occurred in vital organs, following the administration of the drugs. Briefly, formalin-fixed, paraffin-embedded tissue/organs (tumor, kidneys, liver and lungs) samples (5 m) were injected with PTX, [D-Lys6]LHRH-conjugated PTX drugs and DMSO. These were hydrated by passing them through decreasing concentrations (100, 90 &70%) of alcohol baths and water.
The hydrated tissue sections were then stained in hematoxylin solution for 5 mins. This was followed by rinsing with tap water for 3 minutes and differentiation in 1% acid alcohol for 5 minutes. Tap water was then used to rinse (three times) before dipping the sections in ammonia water for 2 minutes. This was followed by staining with eosin for 10 mins. The treated sliced samples were dehydrated in solution with increasing concentrations of alcohols followed by xylene. Finally, a few drops of Permount Mounting Medium were used to mount the resulting samples. The stained slides were then imaged with a 20× objective lens using a TS100F Nikon microscope (Nikon Instruments Inc., Melville, N.Y., USA) coupled with a DS-Fi3 C camera.
Series [4] deals with MDA MB 231 cells. In words: alamar blue cell viability and cytotoxicity assay. Type of series: cell-based, human. As to the method:
The alamar blue cell viability and cytotoxicity assay was used to study the MDA MB 231 cells lines in the log phase of growth. MDA MB 231 cells were harvested with trypsin-EDTA in the presence of Dulbecco Phosphate Buffer (DPBS). 10^4 cells/well were then seeded in 12-well plates in L15+ medium (L15 medium with cell medium supplement of FBS and penicillin/streptomycin). After a 3-hour attachment period (of the cells), respective concentrations of 15 μM, 25 μM and 30 μM of paclitaxel, LRH-conjugated paclitaxel (of Example 1) and DMSO (in culture medium) were added to the 12-well plates consisting of 10^4 cells. Cell viability was monitored using the alamar blue cell viability and cytotoxicity reagent (Thermo Fisher Scientific, Waltham, Mass., USA) at times of 0 h, 18 h, 24 h, 48 h and 72 h, following drug addition. At each time point, the culture medium was replaced with 1 ml of 10% alamar blue solution (in culture medium). The 12-well plates were then incubated at 37° C. for different durations. After each time point, 100 µl of the solution incubated with alamar blue solution (ABS) was transferred into triplicate wells of a black opaque 96-well plate (Thermo Fisher Scientific, Waltham, Mass., USA).
The fluorescence intensities of the cell medium supernatant incubated with ABS were measured at 544 nm excitation and 590 nm emission using a 1420 Victor3 multi-label plate reader (Perkin Elmer, Waltham, Mass., USA). The percentage of alamar blue reduction, the percentage difference in cell population between the treated and untreated cells, and the percentage of cell growth inhibition, were determined using a combination of the ABS and cell viability studies. […]
where, FIsample=fluorescence intensity of the (treated or untreated) cells, FI10% AB=fluorescence intensity of 10% alamar blue reagent (negative control) and FI10% R=fluorescence intensity of 100% reduced alamar blue (positive control).
FItreated=fluorescence intensity of treated cells and FIcells=fluorescence intensity of untreated cells

The test system of series [5] is triple negative breast tumor. In words: drug-tissue adhesion study (drug-coated AFM tip). Type of series: binding, mice. The method, then: In an effort to understand the specificity in the targeting of triple negative breast cancer via the receptors that are over-expressed on the tumor, adhesion measurements were carried out on the control xenograft tissue samples at different stages of tumor development. Adhesion forces and interactions (between the different drug molecules and receptors on the surfaces of the tumor tissues at different stages of development) were explored in an effort to understand the interactions of the drugs with the tumor and non-tumor tissue.
Antigen retrieval was carried out on the fixed tissue. This involved exposing target antigens to receptors on a […] thick microtome tissue slice. These sliced tissues were prepared for adhesion measurements in an Asylum MFP3D-Bio Atomic Force Microscope (AFM) (Asylum Research, Oxford Instrument, CA, USA). The AFM tips RESP-20 AFM tip (Bruker Santa Barbara, Calif., USA) were dip-coated with paclitaxel or [D-Lys6]LHRH-conjugated paclitaxel using the techniques described in Obayemi et al. (J. Mech. Behav. Biomed. Mater., 68 (2017), pp. 276-286).
A simple AFM tip dip-coating technique (J. D. Obayemi et al. Materials Science and Engineering C. 66, (2016), 51-65, Hampp, E. et al. Res. 27 (22), 2891, Hutter, J. L. et al. Instrum. 64, 1868) (of the drugs) was used to coat the AFM tips at room-temperature (˜23° C.). In addition, a positive control of LHRH peptides was coated onto the AFM tips and used to determine the adhesion forces between the receptors on breast cancer tissue. All of the coated AFM tips were air-dried for about 6 h and kept in a desiccator overnight before the adhesion measurements.
The spring constants of the coated and uncoated AFM tips were measured experimentally using the thermal tune method (J.D. Obayemi, et al. Mater., 68 (2017), 276-286). This was done to obtain the actual spring constants that were used to calculate the pull-off forces from Hooke's law. The adhesion interactions were measured for the following configurations of coatings on the AFM tips and breast cancer tumor at different stages on the mice: […]

The subject of series [6] is MDA-MB-231 cells. Nature of the series: confocal fluorescence imaging of cellular uptake and cytotoxicity. Type of series: cell-based, human. As to conditions: 30 μM, 6 hours.
Where [7] appears, read: 10 mg/kg per week IV, two weeks.

`CC(=O)O[C@H]1C(=O)[C@@]2(C)[C@H]([C@H](OC(=O)c3ccccc3)[C@]3(O)C[C@H](OC(=O)[C@H](O)[C@@H](NC(=O)c4ccccc4)c4ccccc4)C(C)=C1C3(C)C)[C@]1(OC(C)=O)CO[C@@H]1C[C@@H]2O` [PTX, paclitaxel]: the “cell viability, PTX versus LHRH-conjugated PTX” value in series [1] is given as “no significant differences in cell viability”. Further, in series [2] (10 mg/kg per week IV), the “tumor volume, 21-day group” value is 86.83 mm^3 and the “xenograft tumor size, 28-day group” value is given as 299.2 mm^3. Further, the “final tumor sizes, day 14 group” value in series [2] (two IV injections (one per week) of 10 mg/kg, mean volume before treatment 67 mm^3) is on record as approximately 49.1 mm^3.

Regarding LHRH-PTX, in series [1], the “cell viability, PTX versus LHRH-conjugated PTX” value is “no significant differences in cell viability”. Further, the “qualitative toxicity (mortality, body weight, clinical signs)” value in series [3] was “No clinical signs, differences in mortality, or changes in body weight”. Also, in series [3] (listed as [D-Lys6]LHRH-conjugated paclitaxel), the “qualitative toxicity (mortality, body weight, clinical signs)” value is “without any evidence of toxicity”. Moreover, the “histopathology of liver, lung and kidneys (H&E)” value in series [3] (listed as [D-Lys6]LHRH-conjugated PTX) is “no significant histological or significant pathological changes; also recorded: no evidence of liver cell hyaline degeneration and necrosis, and no pulmonary edema or hyperplasia observed in the lungs”. Besides, the “percentage cell growth inhibition” value in series [4] (15 μM, 25 μM, and 30 μM, 72 h) is reported as “effective at inhibiting the growth of MDA MB 231 cells”. The “cytotoxicity on coincubation with LHRH” value in series [4] (coincubation of LHRH, 72 h) is given as “decreased the cytoxicity”. In addition, the “cell viability (percentage alamar blue reduction) compared with unconjugated drug” value in series [4] (without siRNA, 18, 24, 48 and 72 h) is recorded as “significantly reduced cell viability than the unconjugated drugs”. In series [5], the “adhesion force relative to unconjugated PTX, early stage tumor” value is on record as “nearly three times”; the “adhesion force relative to unconjugated PTX, late stage tumor” value was “about 2 times”; the “adhesion force relative to unconjugated PTX, mid stage tumor” value is recorded as “more than three times”. Also, the “disruption of actin filaments, vinculin structures and cell membranes” value in series [6] was “more evident”. In series [2] (10 mg/kg IV), the “tumor outcome, mid- and late-stage tumors (21 and 28 days)” value was “significant shrinkage”. In series [2] (setting [7]), the “decrease in xenograft volume compared to unconjugated PTX, 21-day group” value was found to be 91% and the “percentage reduction in xenograft tumor volume compared to unconjugated PTX, 28-day group” value was found to be 90.2%. Moreover, the “structural changes in tumor cells/tissue (TEM)” value in series [2] (21-day and 28-day treatment groups) is on record as “greater structural changes”. Besides, in series [2] (10 mg/kg per week IV), the “tumor volume, 21-day group” value worked out at 7.76 mm^3 and the “xenograft tumor size, 28-day group” value worked out at 29.4 mm^3. Also, the “necrosis in tumor tissue (H&E)” value in series [2] (compared with unconjugated PTX) is “higher levels of necrosis in the tumors”. For the same molecule, the “tumor outcome, early stage (day 14 group)” value (shortened to “tumor outcome, early stage”) in series [2] (two IV injections (one per week) of 10 mg/kg, listed as LHRH-conjugated paclitaxel) is on record as “elimination of early stage breast tumors”. Also, in series [2] (two IV injections (one per week) of 10 mg/kg, listed as [D-Lys6]LHRH-conjugated PTX), the “tumor outcome, early stage” value is “eliminated”. Besides, in series [2] (two IV injections (one per week) of 10 mg/kg, listed as [D-Lys6]LHRH-conjugated paclitaxel), the “tumor outcome, early stage” value is reported as “eliminated the tumors”.

Values taken from US20210128675A1, “LHRH-PACLITAXEL CONJUGATES AND METHODS OF USE” (priority 2019, published 2021).
